From US20220033397A1, “PHARMACEUTICAL COMPOUNDS AND THEIR USE AS INHIBITORS OF UBIQUITIN SPECIFIC PROTEASE 19 (USP19)” (ALMAC DISCOVERY LIMITED, priority 2018, published 2022)
pIC50: −log10 of the molar value.

Each compound was assayed against T1, Full-length USP19 (Homo sapiens, UniProt O94966) (assay: USP19 fluorescence polarisation (FP) homogeneous assay with Ubiquitin-Lys-TAMRA substrate). Conditions: 2.5 nM USP19, 30 min pre-incubation, average of at least two duplicate experiments.
T1 construct: Full-length USP19 was purchased from Boston Biochem (E-576); purchased Boston Biochem E-576
T1 sequence (O94966 1-1318): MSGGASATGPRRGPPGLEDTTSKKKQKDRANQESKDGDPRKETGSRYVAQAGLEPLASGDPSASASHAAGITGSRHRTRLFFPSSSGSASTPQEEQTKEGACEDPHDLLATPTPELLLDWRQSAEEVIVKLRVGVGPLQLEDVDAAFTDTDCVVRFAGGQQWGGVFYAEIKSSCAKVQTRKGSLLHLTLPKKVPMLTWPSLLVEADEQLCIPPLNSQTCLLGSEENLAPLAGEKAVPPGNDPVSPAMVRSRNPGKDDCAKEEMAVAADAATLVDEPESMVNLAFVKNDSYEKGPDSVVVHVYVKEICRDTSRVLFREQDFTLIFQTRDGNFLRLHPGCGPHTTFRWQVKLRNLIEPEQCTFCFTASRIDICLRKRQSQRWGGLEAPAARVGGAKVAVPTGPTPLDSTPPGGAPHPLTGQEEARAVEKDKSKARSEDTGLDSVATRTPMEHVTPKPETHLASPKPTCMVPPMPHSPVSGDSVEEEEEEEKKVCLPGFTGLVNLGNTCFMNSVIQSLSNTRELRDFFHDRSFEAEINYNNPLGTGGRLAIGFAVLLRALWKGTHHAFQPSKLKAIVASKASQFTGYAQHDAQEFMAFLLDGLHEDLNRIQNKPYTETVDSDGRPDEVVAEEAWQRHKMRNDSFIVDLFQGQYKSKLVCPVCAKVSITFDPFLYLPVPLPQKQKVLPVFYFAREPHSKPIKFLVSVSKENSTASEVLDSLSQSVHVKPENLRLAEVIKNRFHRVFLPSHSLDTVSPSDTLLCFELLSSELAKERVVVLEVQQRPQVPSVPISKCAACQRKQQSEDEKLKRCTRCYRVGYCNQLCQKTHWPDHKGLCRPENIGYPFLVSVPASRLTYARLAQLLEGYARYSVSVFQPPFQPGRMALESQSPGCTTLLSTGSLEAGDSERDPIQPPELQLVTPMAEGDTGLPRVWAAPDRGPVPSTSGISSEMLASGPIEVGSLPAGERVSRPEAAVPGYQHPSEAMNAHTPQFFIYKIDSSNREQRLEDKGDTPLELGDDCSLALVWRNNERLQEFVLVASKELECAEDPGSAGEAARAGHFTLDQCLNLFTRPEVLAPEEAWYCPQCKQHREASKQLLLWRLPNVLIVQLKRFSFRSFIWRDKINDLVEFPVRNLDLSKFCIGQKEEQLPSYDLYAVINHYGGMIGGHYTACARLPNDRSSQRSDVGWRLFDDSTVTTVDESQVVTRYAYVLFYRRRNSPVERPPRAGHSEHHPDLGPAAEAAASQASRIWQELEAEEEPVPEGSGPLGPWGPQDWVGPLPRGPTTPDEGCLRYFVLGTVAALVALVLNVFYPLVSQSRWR
Assay type: biochemical
Protocol: Unless otherwise stated, all other reagents were purchased from Sigma. Enzymatic reactions were conducted in black flat bottom polystyrene 384-well plates (Nunc) and 30 μL total volume. […] Inhibitors were stored as 10 mM DMSO stocks in an inert environment (low humidity, dark, low oxygen, room temperature) using the Storage Pod System and serial dilutions were prepared in buffer just prior to the assay (from 200 μM to 2 μM, 8-18 data point curve).
Following incubation at RT for 30 min, the enzymatic reactions were initiated by dispensing the Ub substrate (500 nM, 10 μL). FP was measured every 15 min over a period of 90 min (within the linear range of the assay) using a Synergy 4 plate reader (BioTek) exciting at 530 nm and measuring the amount of parallel and perpendicular light at 575 nm. The FP signal was subsequently normalised to the no compound control.

Compound | pIC50
C[C@H](CC1CCCCC1)C(=O)N1CCC(O)(Cn2cc(S(C)(=O)=O)c(Cl)cc2=O)C2(CCCC2)C1 (stereo partly drawn) [Example 77, 4-Chloro-1-((7-((R)-3-cyclohexyl-2-methylpropanoyl)-10-hydroxy-7-azaspiro[4.5]decan-10-yl)methyl)-5-(methylsulfonyl)pyridin-2(1H)-one] | > 6.30
O=C(N1CC[C@@](O)(Cn2cnc(C3CC3)cc2=O)C2(CCCC2)C1)N1CCOC[C@H]1c1ccccc1 [Example 222, 6-Cyclopropyl-3-(((S)-10-hydroxy-7-((R)-3-phenylmorpholine-4-carbonyl)-7-azaspiro[4.5]decan-10-yl)methyl)pyrimidin-4(3H)-one] | > 6.30
O=C(N1CCCC2(CC2)C1)N1CCC(O)(Cn2cnc(-c3ccccc3)cc2=O)C2(CCCC2)C1 (stereo not shown) [Example 250, 3-((10-Hydroxy-7-(5-azaspiro[2.5]octane-5-carbonyl)-7-azaspiro[4.5]decan-10-yl)methyl)-6-phenylpyrimidin-4(3H)-one] | 4.30 to 5.30
O=C(N1CC[C@@](O)(Cn2cnc(-c3cccc(F)c3)cc2=O)C2(CCCC2)C1)N1CCNC[C@H]1c1cc(F)ccc1F [Example 376, 3-(((S)-7-((R)-2-(2,5-Difluorophenyl)piper-azine-1-carbonyl)-10-hydroxy-7-azaspiro[4.5]decan-10-yl)methyl)-6-(3-fluorophenyl)pyrimi-din-4(3H)-one] | > 6.30
C[C@H](CC(F)(F)F)C(=O)N1CCC(O)(Cn2cnc3c(cnn3C)c2=O)C2(CCCC2)C1 (stereo partly drawn) [Example 180, 5-((10-Hydroxy-7-((R)-4,4,4-trifluoro-2-methylbutanoyl)-7-azaspiro[4.5]decan-10-yl)methyl)-1-methyl-1,5-dihydro-4H-pyrazolo[3,4-d]pyrimidin-4-one] | 4.30 to 5.30
CS(=N)(=O)c1cn(CC2(O)CCN(C(=O)N3CCOC[C@H]3c3ccccc3)CC23CCCC3)c(=O)cc1-c1ccccc1 (stereo partly drawn) [Example 190, 1-((10-Hydroxy-7-((R)-3-phenylmorpholine-4-carbonyl)-7-azaspiro[4.5]decan-10-yl)methyl)-5-(S-methylsulfonimidoyl)-4-phenylpyridin-2(1H)-one] | > 6.30
C[C@H](CC(F)(F)F)C(=O)N1CCC(O)(Cn2ccc3ccncc3c2=O)C2(CCCC2)C1 (stereo partly drawn) [Example 136, 2-((10-Hydroxy-7-((R)-4,4,4-trifluoro-2-methylbutanoyl)-7-azaspiro[4.5]decan-10-yl)methyl)-2,7-naphthyridin-1(2H)-one] | 4.30 to 5.30
O=C(N1CCC(C(F)F)CC1)N1CCC(O)(Cn2cnc(-c3ccccc3)cc2=O)C2(CCCC2)C1 (stereo not shown) [Example 241, 3-((7-(4-(Difluoromethyl)piperidine-1-carbonyl)-10-hydroxy-7-azaspiro[4.5]decan-10-yl)methyl)-6-phenylpyrimidin-4(3H)-one] | 4.30 to 5.30
O=C(N1CC[C@@](O)(Cn2cnc(-c3ccccc3)cc2=O)C2(CCCC2)C1)N1CCNCC1c1ccc(C(F)(F)F)cc1 (stereo partly drawn) [Example 336, 3-(((10S)-10-Hydroxy-7-(2-(4-(trifluoromethyl)phenyl)piperazine-1-carbonyl)-7-azaspiro[4.5]decan-10-yl)methyl)-6-phenylpyrimidin-4(3H)-one] | > 6.30
CN1CCN(C(=O)N2CC[C@@](O)(Cn3cnc(-c4ccccc4)cc3=O)C3(CCCC3)C2)[C@H](c2ccccc2)C1 [Example 281, 3-(((S)-10-Hydroxy-7-((R)-4-methyl-2-phenylpiperazine-1-carbonyl)-7-azaspiro[4.5]decan-10-yl)methyl)-6-phenylpyrimidin-4(3H)-one] | > 6.30
CC1CN(CC2(O)CCN(C(=O)[C@H](C)CC(F)(F)F)CC23CCCC3)C(=O)CO1 (stereo partly drawn) [Example 97, 4-((10-Hydroxy-7-((R)-4,4,4-trifluoro-2-methylbutanoyl)-7-azaspiro[4.5]decan-10-yl)methyl)-6-methylmorpholin-3-one] | 3.60 to 4.30
COc1cccc(-c2cc(=O)n(C[C@]3(O)CCN(C(=O)N4CCNC[C@H]4c4ccccc4)CC34CCCC4)cn2)c1 [Example 338, 3-(((S)-10-Hydroxy-7-((R)-2-phenylpiperazine-1-carbonyl)-7-azaspiro[4.5]decan-10-yl)methyl)-6-(3-methoxyphenyl) pyrimidin-4(3H)-one] | > 6.30
C[C@H](CC1CCCCC1)C(=O)N1CCC(O)(CN2CCN(C(=O)OCc3ccccc3)CC2=O)C2(CCCC2)C1 (stereo partly drawn) [Example 47, Benzyl 4-((7-((R)-3-cyclohexyl-2-methylpropanoyl)-10-hydroxy-7-azaspiro[4.5]decan-10-yl)methyl)-3-oxopiperazine-1-carboxylate] | 5.30 to 6.30
O=C(N1CC[C@@](O)(Cn2cnc(-c3ccccc3)cc2=O)C2(CCCC2)C1)N1CCOC[C@H]1c1ccccc1 [Example 211, 3-(((S)-10-Hydroxy-7-((R)-3-phenylmorpholine-4-carbonyl)-7-azaspiro[4.5]decan-10-yl)methyl)-6-phenylpyrimidin-4(3H)-one] | > 6.30
O=C(N1CC[C@@](O)(Cn2cnc(-c3cccc(F)c3)cc2=O)C2(CCCC2)C1)N1CCNC[C@H]1c1cccc(F)c1 [Example 375, 6-(3-Fluorophenyl)-3-(((S)-7-((R)-2-(3-fluorophenyl)pipera-zine-1-carbonyl)-10-hydroxy-7-aza-spiro[4.5]decan-10-yl)methyl)pyrimidin-4(3H)-one] | > 6.30
COc1ccc(-c2cc(=O)n(C[C@]3(O)CCN(C(=O)N4CCNC[C@H]4c4ccccc4)CC34CCCC4)cn2)cc1 [Example 339, 3-(((S)-10-Hydroxy-7-((R)-2-phenylpiperazine-1-carbonyl)-7-azaspiro[4.5]decan-10-yl)methyl)-6-(4-methoxyphenyl) pyrimidin-4(3H)-one] | > 6.30
O=C(N1CCC(O)(Cn2cnc(-c3ccccc3)cc2=O)C2(CCC2)C1)N1CCOC[C@H]1c1ccccc1 (stereo partly drawn) [Example 305, 3-((9-Hydroxy-6-((R)-3-phenylmorpholine-4-carbonyl)-6-azaspiro[3.5]nonan-9-yl)methyl)-6-phenylpyrimidin-4(3H)-one] | > 6.30
N#Cc1ccc(CNC(=O)N2CC[C@@](O)(Cn3cnc(-c4ccccc4)cc3=O)C3(CCCC3)C2)cc1 [Example 215, (S)—N-(4-Cyanobenzyl)-10-hydroxy-10-((6-oxo-4-phenylpyrimidin-1(6H)-yl)methyl)-7-azaspiro[4.5]decane-7-carboxamide] | 3.60 to 4.30
CSc1ncc2c(=O)n(C[C@]3(O)CCN(C(=O)N4CCNC[C@H]4c4ccccc4)CC34CCCC4)ccc2n1 [Example 184, 6-(((S)-10-Hydroxy-7-((R)-2-phenylpiperazine-1-carbonyl)-7-azaspiro[4.5]decan-10-yl)methyl)-2-(methylthio)pyrido[4,3-d]pyrimidin-5(6H)-one] | > 6.30
C[C@H](CC(F)(F)F)C(=O)N1CCC(O)(Cn2cnc3c(cnn3C3CC3)c2=O)C2(CCCC2)C1 (stereo partly drawn) [Example 181, 1-Cyclopropyl-5-((10-hydroxy-7-((R)-4,4,4-trifluoro-2-methylbutanoyl)-7-azaspiro[4.5]decan-10-yl)methyl)-1,5-dihydro-4H-pyrazolo[3,4-d]pyrimidin-4-one] | 4.30 to 5.30
O=C(N1CC[C@@](O)(Cn2cnc(N3CCCC(F)(F)C3)cc2=O)C2(CCCC2)C1)N1CCNC[C@H]1c1ccccc1 [Example 363, 6-(3,3-Difluoro-piperidin-1-yl)-3-(((S)-10-hydroxy-7-((R)-2-phenylpiperazine-1-carbonyl)-7-azaspiro[4.5]decan-10-yl)methyl)pyrimi-din-4(3H)-one] | > 6.30
O=C(N1CCC(O)(Cn2cnc(-c3ccccc3)cc2=O)CC1)N1CCNC[C@H]1c1ccccc1 [Example 297, (R)-3-((4-Hydroxy-1-(2-phenylpiperazine-1-carbonyl)piperidin-4-yl)methyl)-6-phenylpyrimidin-4(3H)-one] | > 6.30
